Structures are written as SMILES.

The text below walks through data of patent US8349844B2, “Substituted pyrazolo [1,5-A] pyrimidines as metabotropic glutamate antagonists” (Hoffmann-La Roche Inc., priority 2005, dated 2013).

The term melting point denotes the temperature of the solid-liquid transition. The compound `Nc1ccc(-c2noc(-c3cnn4c(C(F)(F)F)cc(-c5ccc(C(F)(F)F)c(F)c5)nc34)n2)cn1` [Example 75, 5-{5-[5-(3-Fluoro-4-trifluoromethyl-phenyl)-7-trifluoromethyl-pyrazolo[1,5-a]pyrimidin-3-yl]-[1,2,4]oxadiazol-3-yl}-pyridin-2-ylamine] registered a melting point of 233 °C.

Take `NS(=O)(=O)c1cccc(-c2noc(-c3cnn4c(C(F)(F)F)cc(-c5ccc(C(F)(F)F)c(OCC(F)(F)F)c5)nc34)n2)c1` [Example 16, 3-(5-{5-[3-(2,2,2-Trifluoro-ethoxy)-4-trifluoromethyl-phenyl]-7-trifluoromethyl-pyrazolo[1,5-a]pyrimidin-3-yl}-[1,2,4]oxadiazol-3-yl)-benzenesulfonamide]: the melting point was found to be 250 °C. Take `Nc1ncc(-c2noc(-c3cnn4c(C(F)(F)F)cc(-c5ccc(C(F)(F)F)c(F)c5)nc34)n2)cn1` [Example 79, 5-{5-[5-(3-Fluoro-4-trifluoromethyl-phenyl)-7-trifluoromethyl-pyrazolo[1,5-a]pyrimidin-3-yl]-[1,2,4]oxadiazol-3-yl}-pyrimidin-2-ylamine]: the melting point is 270 °C. The compound `Cc1cc(-c2cc(C(F)(F)F)n3ncc(-c4nc(-c5ccc(S(N)(=O)=O)s5)no4)c3n2)ccc1C(F)(F)F` [Example 22, 5-{5-[5-(3-Methyl-4-trifluoromethyl-phenyl)-7-trifluoromethyl-pyrazolo[1,5-a]pyrimidin-3-yl]-[1,2,4]oxadiazol-3-yl}-thiophene-2-sulfonic acid amide] registered a melting point of 324 °C. Compound `Nc1ccc(-c2noc(-c3cnn4c(C(F)(F)F)cc(-c5ccc(F)c(F)c5)nc34)n2)cn1` [Example 76, 5-{5-[5-(3,4-Difluoro-phenyl)-7-trifluoromethyl-pyrazolo[1,5-a]pyrimidin-3-yl]-[1,2,4]oxadiazol-3-yl}-pyridin-2-ylamine] had a melting point of 262 °C.

`NS(=O)(=O)c1cccc(-c2noc(-c3cnn4c(C(F)(F)F)cc(-c5cccc(C(F)(F)F)c5)nc34)n2)c1` [Example 26, 3-{5-[7-Trifluoromethyl-5-(3-trifluoromethyl-phenyl)-pyrazolo[1,5-a]pyrimidin-3-yl]-[1,2,4]oxadiazol-3-yl}-benzenesulfonamide] showed a melting point of 251 °C.

Regarding `NS(=O)(=O)c1ccc(-c2noc(-c3cnn4c(C(F)(F)F)cc(-c5ccc(Cl)cc5)nc34)n2)s1` [Example 28, 5-{5-[5-(4-Chloro-phenyl)-7-trifluoromethyl-pyrazolo[1,5-a]pyrimidin-3-yl]-[1,2,4]oxadiazol-3-yl}-thiophene-2-sulfonic acid amide], the melting point came out at 294 °C. Take `NS(=O)(=O)c1ccc(-c2noc(-c3cnn4c(C(F)F)cc(-c5ccc(Cl)cc5)nc34)n2)s1` [Example 29, 5-{5-[5-(4-Chloro-phenyl)-7-difluoromethyl-pyrazolo[1,5-a]pyrimidin-3-yl]-[1,2,4]oxadiazol-3-yl}-thiophene-2-sulfonic acid amide]: the melting point worked out at 259 °C. For the compound `CCOc1cc(-c2cc(C(F)F)n3ncc(-c4nc(-c5ccc(N)nc5)no4)c3n2)ccc1C(F)(F)F` [Example 68, 5-{5-[7-Difluoromethyl-5-(3-ethoxy-4-trifluoromethyl-phenyl)-pyrazolo[1,5-a]pyrimidin-3-yl]-[1,2,4]oxadiazol-3-yl}-pyridin-2-ylamine], the melting point came to 250 °C.

`Cc1cc(-c2cc(C(F)(F)F)n3ncc(-c4nc(-c5cnc(N)nc5)no4)c3n2)ccc1Cl` [Example 84, 5-{5-[5-(4-Chloro-3-methyl-phenyl)-7-trifluoromethyl-pyrazolo[1,5-a]pyrimidin-3-yl]-[1,2,4]oxadiazol-3-yl}-pyrimidin-2-ylamine] came in with a melting point of 272 °C. `NS(=O)(=O)c1cccc(-c2noc(-c3cnn4c(C(F)(F)F)cc(-c5ccc(C(F)(F)F)cc5)nc34)n2)c1` [Example 2, 3-{5-[7-Trifluoromethyl-5-(4-trifluoromethyl-phenyl)-pyrazolo[1,5-a]pyrimidin-3-yl]-[1,2,4]oxadiazol-3-yl}-benzenesulfonamide] returned a melting point of 262 °C. In turn, `Cc1cc(-c2ccc(Cl)cc2)cn2c(-c3nc(-c4ccc(S(N)(=O)=O)cc4)no3)cnc12` [Example 39, 4-{5-[6-(4-Chloro-phenyl)-8-methyl-imidazo[1,2-a]pyridin-3-yl]-[1,2,4]oxadiazol-3-yl}-benzenesulfonamide] came in with a melting point of 311 °C.

Take `Nc1ccc(-c2noc(-c3cnn4c(C(F)F)cc(-c5ccc(C(F)(F)F)c(F)c5)nc34)n2)cn1` [Example 74, 5-{5-[7-Difluoromethyl-5-(3-fluoro-4-trifluoromethyl-phenyl)-pyrazolo[1,5-a]pyrimidin-3-yl]-[1,2,4]oxadiazol-3-yl}-pyridin-2-ylamine]: the melting point turned out to be 242 °C. `Cc1cc(-c2ccc(Cl)cc2)nc2c(-c3nc(-c4cccc(S(N)(=O)=O)c4)no3)cnn12` [Example 38, 3-{5-[5-(4-Chloro-phenyl)-7-methyl-pyrazolo[1,5-a]pyrimidin-3-yl]-[1,2,4]oxadiazol-3-yl}-benzenesulfonamide] displayed a melting point of 275 °C.

In turn, `Cc1cc(-c2ccc(C(F)(F)F)cc2)cn2c(-c3nc(-c4ccnc(N)c4)no3)cnc12` [Example 60, 4-{5-[8-Methyl-6-(4-trifluoromethyl-phenyl)-imidazo[1,2-a]pyridin-3-yl]-[1,2,4]oxadiazol-3-yl}-pyridin-2-ylamine] displayed a melting point of 264 °C.

With `Nc1ncc(-c2noc(-c3cnn4c(C(F)(F)F)cc(-c5ccc(Cl)cc5)nc34)n2)cn1` [Example 82, 5-{5-[5-(4-Chloro-phenyl)-7-trifluoromethyl-pyrazolo[1,5-a]pyrimidin-3-yl]-[1,2,4]oxadiazol-3-yl}-pyrimidin-2-ylamine], the melting point was found to be 268 °C. Consider `Nc1ccc(-c2noc(-c3cnn4c(C(F)F)cc(-c5ccc(C(F)(F)F)c(OCC(F)(F)F)c5)nc34)n2)cn1` [Example 71, 5-(5-{7-Difluoromethyl-5-[3-(2,2,2-trifluoro-ethoxy)-4-trifluoromethyl-phenyl]-pyrazolo[1,5-a]pyrimidin-3-yl}-[1,2,4]oxadiazol-3-yl)-pyridin-2-ylamine], for which the melting point was found to be 285 °C. Regarding `Cc1cc(-c2cc(C(F)(F)F)n3ncc(-c4nc(-c5ccc(N)nc5)no4)c3n2)ccc1Cl` [Example 64, 5-{5-[5-(4-Chloro-3-methyl-phenyl)-7-trifluoromethyl-pyrazolo[1,5-a]pyrimidin-3-yl]-[1,2,4]oxadiazol-3-yl}-pyridin-2-ylamine], the melting point came out at 262 °C. Compound `Cc1cc(-c2cc(C(F)(F)F)n3ncc(-c4nc(-c5ccc(N)nc5)no4)c3n2)ccc1C(F)(F)F` [Example 37, 5-{5-[5-(3-Methyl-4-trifluoromethyl-phenyl)-7-trifluoromethyl-pyrazolo[1,5-a]pyrimidin-3-yl]-[1,2,4]oxadiazol-3-yl}-pyridin-2-ylamine] had a melting point of 220 °C. For the compound `NS(=O)(=O)c1ccc(-c2nc(-c3cnn4c(C(F)(F)F)cc(-c5ccc(C(F)(F)F)cc5)nc34)no2)cc1` [Example 14, 4-{3-[7-Trifluoromethyl-5-(4-trifluoromethyl-phenyl)-pyrazolo[1,5-a]pyrimidin-3-yl]-[1,2,4]oxadiazol-5-yl}-benzenesulfonamide], the melting point came out at 292 °C. `Nc1ncc(-c2noc(-c3cnn4c(C(F)(F)F)cc(-c5ccc(C(F)(F)F)c(Cl)c5)nc34)n2)cn1` [Example 80, 5-{5-[5-(3-Chloro-4-trifluoromethyl-phenyl)-7-trifluoromethyl-pyrazolo[1,5-a]pyrimidin-3-yl]-[1,2,4]oxadiazol-3-yl}-pyrimidin-2-ylamine] registered a melting point of 279 °C. As for `Cc1cc(-c2ccc(C(F)(F)F)cc2)cn2c(-c3nc(-c4ccc(S(N)(=O)=O)cc4)no3)cnc12` [Example 43, 4-{5-[8-Methyl-6-(4-trifluoromethyl-phenyl)-imidazo[1,2-a]pyridin-3-yl]-[1,2,4]oxadiazol-3-yl}-benzenesulfonamide], the melting point is 290 °C. In the case of `NS(=O)(=O)c1ccc(-c2nc(-c3cnn4c(C(F)(F)F)cc(-c5ccc(C(F)(F)F)cc5)nc34)no2)s1` [Example 33, 5-{3-[7-Trifluoromethyl-5-(4-trifluoromethyl-phenyl)-pyrazolo[1,5-a]pyrimidin-3-yl]-[1,2,4]oxadiazol-5-yl}-thiophene-2-sulfonic acid amide] it was 272 °C. In the case of `Cc1cc(-c2ccc(C(F)(F)F)cc2)cn2c(-c3nc(-c4cccc(S(N)(=O)=O)c4)no3)cnc12` [Example 44, 3-{5-[8-Methyl-6-(4-trifluoromethyl-phenyl)-imidazo[1,2-a]pyridin-3-yl]-[1,2,4]oxadiazol-3-yl}-benzenesulfonamide], the melting point came out at 326 °C. `Nc1ccc(-c2noc(-c3cnc4ccc(-c5ccc(Cl)cc5)cn34)n2)cn1` [Example 57, 5-{5-[6-(4-Chloro-phenyl)-imidazo[1,2-a]pyridin-3-yl]-[1,2,4]oxadiazol-3-yl}-pyridin-2-ylamine]: the melting point was 273 °C. Then `Nc1cc(-c2noc(-c3cnc4ccc(-c5ccc(C(F)(F)F)cc5)cn34)n2)ccn1` [Example 61, 4-{5-[6-(4-Trifluoromethyl-phenyl)-imidazo[1,2-a]pyridin-3-yl]-[1,2,4]oxadiazol-3-yl}-pyridin-2-ylamine], with 280 °C; and `NS(=O)(=O)c1ccc(-c2noc(-c3cnc4c(C(F)(F)F)cc(-c5ccc(C(F)(F)F)cc5)cn34)n2)cc1` [Example 13, 4-{5-[8-Trifluoromethyl-6-(4-trifluoromethyl-phenyl)-imidazo[1,2-a]pyridin-3-yl]-[1,2,4]oxadiazol-3-yl}-benzenesulfonamide], with 292 °C.

For `Nc1ccc(-c2noc(-c3cnn4c(C(F)(F)F)cc(-c5ccc(Cl)cc5)nc34)n2)cn1` [Example 62, 5-{5-[5-(4-Chloro-phenyl)-7-trifluoromethyl-pyrazolo[1,5-a]pyrimidin-3-yl]-[1,2,4]oxadiazol-3-yl}-pyridin-2-ylamine], the melting point turned out to be 253 °C.

For the compound `NS(=O)(=O)c1cccc(-c2noc(-c3cnn4c(C(F)F)cc(-c5ccc(Cl)cc5)nc34)n2)c1` [Example 19, 3-{5-[5-(4-Chloro-phenyl)-7-difluoromethyl-pyrazolo[1,5-a]pyrimidin-3-yl]-[1,2,4]oxadiazol-3-yl}-benzenesulfonamide], the melting point amounted to 231 °C.
